Experimental data reported in US12637437B2, “Herbicidal compounds” (SYNGENTA CROP PROTECTION AG, priority 2021, dated 2026).

Experiments:
Type in all cases: in vivo
[1] = tested on: Abutilon theophrasti (ABUTH); experiment: Post-emergence herbicidal glasshouse test, ABUTH; conditions: 125 g/h, evaluated after 13 days, five-point scale
Method: (§1) Seeds of a variety of test species are sown in standard soil in pots (Lolium perenne (LOLPE), Amaranthus retoflexus (AMARE), Abutilon theophrasti (ABUTH), Setaria faberi (SETFA), Echinochloa crus-galli (ECHCG), Ipomoea hederacea (IPOHE)). After cultivation for one day (pre-emergence) or after 8 days cultivation (post-emergence) under controlled conditions in a glasshouse (at 24/16° C., day/night; 14 hours light; 65% humidity), the plants are sprayed with an aqueous spray solution derived from the formulation of the technical active ingredient in acetone/water (50:50) solution containing 0.5% Tween 20 (polyoxyethelyene sorbitan monolaurate, CAS RN 9005-64-5). Compounds are applied at 125 g/h unless otherwise indicated. The test plants are then grown in a glasshouse under controlled conditions in a glasshouse (at 24/16° C., day/night; 14 hours light; 65% humidity) and watered twice daily. After 13 days for pre and post-emergence, the test is evaluated for the percentage damage caused to the plant. The biological activities are shown in the following table on a five-point scale (5=80-100%; 4=60-79%; 3=40-59%; 2=20-39%; 1=0-19%). “—” denotes not tested on this species or data not captured.

[2] = tested on: Abutilon theophrasti (ABUTH); experiment: Pre-emergence herbicidal glasshouse test, ABUTH; conditions: 125 g/h, evaluated after 13 days, five-point scale
Method: as §1

[3] = tested on: Ipomoea hederacea (IPOHE); experiment: Post-emergence herbicidal glasshouse test, IPOHE; conditions: 125 g/h, evaluated after 13 days, five-point scale
Method: as §1

Setaria faberi (SETFA) [4] = experiment: Pre-emergence herbicidal glasshouse test, SETFA; conditions: 125 g/h, evaluated after 13 days, five-point scale
Method: as §1

[5] = tested on: Amaranthus retoflexus (AMARE); experiment: Pre-emergence herbicidal glasshouse test, AMARE; conditions: 125 g/h, evaluated after 13 days, five-point scale
Method: as §1

Setaria faberi (SETFA) [6] = experiment: Post-emergence herbicidal glasshouse test, SETFA; conditions: 125 g/h, evaluated after 13 days, five-point scale
Method: as §1

[7] = tested on: Echinochloa crus-galli (ECHCG); experiment: Post-emergence herbicidal glasshouse test, ECHCG; conditions: 125 g/h, evaluated after 13 days, five-point scale
Method: as §1

[8] = tested on: Ipomoea hederacea (IPOHE); experiment: Pre-emergence herbicidal glasshouse test, IPOHE; conditions: 125 g/h, evaluated after 13 days, five-point scale
Method: as §1

[9] = tested on: Echinochloa crus-galli (ECHCG); experiment: Pre-emergence herbicidal glasshouse test, ECHCG; conditions: 125 g/h, evaluated after 13 days, five-point scale
Method: as §1

[10] = tested on: Amaranthus retoflexus (AMARE); experiment: Post-emergence herbicidal glasshouse test, AMARE; parameters: dose or concentration left out as unconfirmed; conditions: evaluated after 13 days, five-point scale
Method: as §1

Structure (SMILES)	percentage damage caused to the plant, POST Application ABUTH [1]	percentage damage caused to the plant, PRE Application ABUTH [2]	percentage damage caused to the plant, POST Application IPOHE [3]	percentage damage caused to the plant, PRE Application SETFA (Setaria faberi (SETFA) [4])	percentage damage caused to the plant, PRE Application AMARE [5]	percentage damage caused to the plant, POST Application SETFA (Setaria faberi (SETFA) [6])	percentage damage caused to the plant, POST Application ECHCG [7]	percentage damage caused to the plant, PRE Application IPOHE [8]	percentage damage caused to the plant, PRE Application ECHCG [9]	percentage damage caused to the plant, POST Application AMARE [10]
CCn1nnnc1NC(=O)c1ccc(OC(F)F)c(NC(=O)OC)c1Cl [Compound 1.010]	3 (3=40-59%)	5 (5=80-100%)	4 (4=60-79%)	3 (3=40-59%)	3 (3=40-59%)	5 (5=80-100%)	5 (5=80-100%)	4 (4=60-79%)	3 (3=40-59%)	4 (4=60-79%)
CCOC(=O)Nc1c(OC(F)(F)F)ccc(C(=O)Nc2nnnn2CC)c1Cl [Compound 1.004]	4 (4=60-79%)	5 (5=80-100%)	4 (4=60-79%)	3 (3=40-59%)	5 (5=80-100%)	4 (4=60-79%)	4 (4=60-79%)	4 (4=60-79%)	5 (5=80-100%)	4 (4=60-79%)
COCCOC(=O)Nc1c(OC(F)(F)F)ccc(C(=O)Nc2nnnn2C)c1Cl [Compound 1.006]	5 (5=80-100%)	5 (5=80-100%)	4 (4=60-79%)	4 (4=60-79%)	4 (4=60-79%)	4 (4=60-79%)	4 (4=60-79%)	4 (4=60-79%)	5 (5=80-100%)	5 (5=80-100%)
CCOC(=O)Nc1c(OC(F)F)ccc(C(=O)Nc2nnnn2C)c1Cl [Compound 1.008]	4 (4=60-79%)	5 (5=80-100%)	4 (4=60-79%)	4 (4=60-79%)	5 (5=80-100%)	4 (4=60-79%)	4 (4=60-79%)	4 (4=60-79%)	5 (5=80-100%)	4 (4=60-79%)
CCn1nnnc1NC(=O)c1ccc(OC(F)(F)F)c(NC(=O)OC)c1Cl [Compound 1.003]	4 (4=60-79%)	5 (5=80-100%)	4 (4=60-79%)	5 (5=80-100%)	5 (5=80-100%)	4 (4=60-79%)	4 (4=60-79%)	4 (4=60-79%)	5 (5=80-100%)	4 (4=60-79%)
COC(=O)Nc1c(OC(F)F)ccc(C(=O)Nc2nnnn2C)c1Cl [Compound 1.005]	5 (5=80-100%)	5 (5=80-100%)	5 (5=80-100%)	4 (4=60-79%)	5 (5=80-100%)	5 (5=80-100%)	5 (5=80-100%)	4 (4=60-79%)	5 (5=80-100%)	5 (5=80-100%)
CCOC(=O)Nc1c(OC(F)(F)F)ccc(C(=O)Nc2nnnn2C)c1Cl [Compound 1.002, ethyl N-[2-chloro-3-[(1-methyltetrazol-5-yl)carbamoyl]-6-(trifluoromethoxy)phenyl]carbamate]	4 (4=60-79%)	5 (5=80-100%)	4 (4=60-79%)	4 (4=60-79%)	5 (5=80-100%)	4 (4=60-79%)	4 (4=60-79%)	5 (5=80-100%)	5 (5=80-100%)	4 (4=60-79%)
CCOC(=O)Nc1c(OC(F)F)ccc(C(=O)Nc2nnnn2CC)c1Cl [Compound 1.009]	4 (4=60-79%)	5 (5=80-100%)	4 (4=60-79%)	3 (3=40-59%)	5 (5=80-100%)	3 (3=40-59%)	5 (5=80-100%)	4 (4=60-79%)	4 (4=60-79%)	4 (4=60-79%)
COC(=O)Nc1c(OC(F)(F)F)ccc(C(=O)Nc2nnnn2C)c1Cl [Compound 1.001]	5 (5=80-100%)	5 (5=80-100%)	5 (5=80-100%)	5 (5=80-100%)	5 (5=80-100%)	5 (5=80-100%)	5 (5=80-100%)	3 (3=40-59%)	5 (5=80-100%)	5 (5=80-100%)
